Experimental data reported in patent US20150250810A1, “D-TAGATOSE-BASED COMPOSITIONS AND METHODS FOR PREVENTING AND TREATING ATHEROSCLEROSIS, METABOLIC SYNDROME, AND SYMPTOMS THEREOF” (University of Kentucky Research Foundation, priority 2008, published 2015).

Experiments:
LDLr-/- mice [1] = experiment: Body weight and adipose tissue characteristics in hypercholesterolemic mice fed sucrose- or TAG-enriched diet for sixteen weeks; type: in vivo; conditions: for macrophage positive F4/80 immunostaining in adipose sections / adipocyte size: study end point; for body weight: enriched diet, sixteen weeks; for development of obesity (weight gain, adiposity, adipocyte hypertrophy): overall study conclusion
From the text: Low-density lipoprotein receptor male and female mice (LDLr^-/-) that were approximately eight weeks old were fed either a standard murine diet (“control”), a diet enriched with sucrose, or a diet enriched with TAG for sixteen weeks. The diets enriched with sucrose or TAG contained equivalents amounts (g/kg) of protein, fat and carbohydrate, although due to the differences in energy content between sucrose (˜4.0 kcal/g) and TAG (˜1.5 kcal/g), the TAG-containing diet provided relatively more calories from fat and protein. Before the sixteen week feeding period, sucrose and TAG were introduced to the experimental mice gradually over a three week period, using an increasing ratio of sucrose or TAG diet to the standard murine diet. Food intake was measured for the first four weeks of the sixteen week period and the body weight of the mice was measured weekly. […] At the study end point, retroperitoneal and epidydimal fat was dissected out of the body and stored in formalin and subsequently embedded in paraffin for examination of morphology and immunostaining. Total adipose tissue mass was increased in both male and female mice fed the diet enriched with sucrose when compared to mice fed murine or TAG-enriched diets. For characterization of adipocyte morphology, adipose tissue sections were deparrafinized and stained using hematoxylin and eosin and then analyzed using Image Pro Plus 5.1 (Media Cybernetics, Silver Spring, Md.). […] Macrophage positive F4/80 immunostaining was detected in adipose section from mice fed a sucrose-enriched diet but not in those fed standard murine or TAG-enriched diets.

LDLr-/- mice [2] = experiment: Atherosclerosis by en face lesion surface area, immunohistochemistry, infrared microscopy and Gomori Trichome staining; type: in vivo; conditions: for concentration of lipids in atherosclerotic lesions: infrared microscopy of aortic lesions
From the text: Low-density lipoprotein receptor male and female mice (LDLr^-/-) that were approximately eight weeks old were fed either a standard murine diet (“control”), a diet enriched with sucrose, or a diet enriched with TAG for sixteen weeks. The diets enriched with sucrose or TAG contained equivalents amounts (g/kg) of protein, fat and carbohydrate, although due to the differences in energy content between sucrose (˜4.0 kcal/g) and TAG (˜1.5 kcal/g), the TAG-containing diet provided relatively more calories from fat and protein. Before the sixteen week feeding period, sucrose and TAG were introduced to the experimental mice gradually over a three week period, using an increasing ratio of sucrose or TAG diet to the standard murine diet. At the study end point, mice were exsanguinated by perfusion through the left ventricle. Aortic tissues from the heart to the […] bifurcation were dissected and fixed overnight in 4% paraformaldehyde made with phosphate buffered solution (“PBS”) and then stored in PBS. Atherosclerosis was quantified by en face analysis of lesion surface area as detailed in Henriques, T A, et al., “Orchidectomy, but not ovariectomy, regulates angiotensin II-induced vascular diseases in apolipoprotein E-deficient mice,” Endocrinology, 145: 3866-3872 (2004). Atherosclerotic lesions were quantified by two independent observers. […] Macrophage infiltration into atherosclerotic areas was assessed using immunohistochemistry staining. […] Collagen may strengthen the fibrous caps in lipid-filled atheromas, preventing rupture.

[3] = tested on: human patients with type 2 diabetes; experiment: Six-month oral TAG dosing study, HbA1c, serum triglycerides, LDL and HDL; type: in vivo; conditions: for average reduction in serum triglycerides / average reduction in HbA1c from the HbA1c of the 2.5 g group: after six months; for decrease in average serum triglycerides from baseline: all TAG-consuming patients
Experimental: Thirty-eight human patients with type 2 diabetes were administered one of three concentrations of TAG orally with meals. […] The treatment duration was six months and patients were randomized to one of the three doses. […] Patients also had to go through an eight week run-in period in which they were on a weight-maintaining diet and a daily exercise program under the supervision of the investigator prior to receiving their TAG dose. Patients with a current or recent history of treatment with any oral or injectable anti-diabetic treatment, as well as patients having one or more episodes of severe hypoglycemia within six months prior to entry into the study, were excluded from the study. Blood samples were taken throughout the experiment and levels of HbAc1, serum triglycerides, LDLs and HDLs were measured.

[4] = humans; cited from earlier work
LDLr-/- mice [5] = experiment: Serum cholesterol, triglyceride and lipoprotein concentrations in diet-fed mice (enzymatic assay kits); type: in vivo; conditions: for total serum triglyceride concentration: end of study; for very low density lipoprotein and LDL cholesterol concentrations / total serum cholesterol concentration: male and female mice; for very low density lipoprotein and LDL cholesterol concentrations: compared to control mice; for total serum cholesterol concentration: sucrose vs standard murine and TAG diets, TAG vs sucrose-fed
From the text: Low-density lipoprotein receptor male and female mice (LDLr^-/-) that were approximately eight weeks old were fed either a standard murine diet (“control”), a diet enriched with sucrose, or a diet enriched with TAG for sixteen weeks. The diets enriched with sucrose or TAG contained equivalents amounts (g/kg) of protein, fat and carbohydrate, although due to the differences in energy content between sucrose (˜4.0 kcal/g) and TAG (˜1.5 kcal/g), the TAG-containing diet provided relatively more calories from fat and protein. Before the sixteen week feeding period, sucrose and TAG were introduced to the experimental mice gradually over a three week period, using an increasing ratio of sucrose or TAG diet to the standard murine diet.
Total serum cholesterol and plasma triglyceride concentrations were determined for the individual mice at the end of the study using enzymatic assay kits (Wako Pure Chemical, Richmond, Va.).

SMILES | macrophage positive F4/80 immunostaining in adipose sections (LDLr-/- mice [1]) | body weight (LDLr-/- mice [1]; female LDLr-/- mice) [g] | adipocyte size (LDLr-/- mice [1]; female mice) [μm] | body weight (LDLr-/- mice [1]; male LDLr-/- mice) [g] | adipocyte size (LDLr-/- mice [1]; male mice) [μm] | development of obesity (weight gain, adiposity, adipocyte hypertrophy) (LDLr-/- mice [1]) | concentration of lipids in atherosclerotic lesions (LDLr-/- mice [2]) | total serum triglyceride concentration (LDLr-/- mice [5]; female mice) [mg/dL] | very low density lipoprotein and LDL cholesterol concentrations (LDLr-/- mice [5]) | total serum cholesterol concentration (LDLr-/- mice [5]) | total serum triglyceride concentration (LDLr-/- mice [5]; male mice) [mg/dL] | other results
O=C(CO)[C@@H](O)[C@@H](O)[C@H](O)CO [TAG, (3S,4S,5R)-1,3,4,5,6-pentahydroxy-hexan-2-one] | not | 24 ± 1 | 31±1 | 27 ± 0 | 79±3 | did not promote substantial weight gain, enhanced adiposity or adipocyte hypertrophy | intermediate amount | 54 ± 8 | only slightly elevated | decreased | 162 ± 29 | concentration of collagen in atherosclerotic lesions (LDLr-/- mice [2]; Gomori Trichome staining, compared to sucrose-fed mice): higher concentration; rate of atherosclerosis compared to control mice (LDLr-/- mice [2]; female mice): slightly higher; amount of atherosclerosis compared to control mice (LDLr-/- mice [2]; male mice): did not exhibit a significantly different amount; average improvement of LDL:HDL ratio ([3]; 2.5 g and 5 g groups): 0.3; average reduction in serum triglycerides ([3]; 2.5 g group): 22.2 mg/dL; decrease in LDL levels ([3]; 2.5 g group, end of the first month): about 12.3 mg/dl; average reduction in HbA1c from the HbA1c of the 2.5 g group ([3]; 5 g group): 0.05%; average reduction in serum triglycerides ([3]; 5 g group): 96.8 mg/dL; decrease in LDL levels ([3]; 5 g group, end of the first month): about 23.8 mg/dl; average reduction in HbA1c from the HbA1c of the 2.5 g group ([3]; 7.5 g group): 0.3%; average reduction in serum triglycerides ([3]; 7.5 g group): 2.8 mg/dL; decrease in average serum triglycerides from baseline ([3]; end of six months): about 41 mg/dl; decrease in average serum triglycerides from baseline ([3]; end of the first month): about 59 mg/dl; average decrease in serum LDL ([3]; all patients, end of the first month): about 13 mg/dl; serum HDL change ([3]; end of the first month): essentially unchanged; fraction of ingested substance absorbed into the bloodstream [4]: about 25%
OC[C@H]1O[C@@](CO)(O[C@H]2O[C@H](CO)[C@@H](O)[C@H](O)[C@H]2O)[C@@H](O)[C@@H]1O [sucrose, reference compound] | detected | 31 ± 1 | 50±1 | 40 ± 2 | 83±3 | promotes the development of obesity | highest concentration | 326 ± 37 | significantly elevated | markedly increased | 822 ± 148 | total adipose tissue mass (LDLr-/- mice [1]; male and female mice, compared to murine or TAG-enriched diets): increased; macrophage infiltration and lesion size in aortic roots (LDLr-/- mice [2]; immunohistochemistry, compared to TAG-fed mice): larger degree of macrophage infiltration and larger lesions; number and size of atherosclerotic lesions in aortic roots (LDLr-/- mice [2]; male and female mice, compared to TAG-fed mice): greater number and size; atherosclerotic surface area (LDLr-/- mice [2]; male and female mice, compared to control and TAG-enriched diet): striking increase
